Reference: PubChem BioAssay (NCI)
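How tested: cells in 96-well plates exposed to compound for 48 hours at five concentrations. TGI is the concentration that stops growth completely.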

What was measured:
Assay in all cases: NCI-60 cell line screen, 48 h
[1] = test system: HS 578T breast
[2] = test system: HOP-62 NSCLC
[3] = test system: SN12C renal
[4] = test system: OVCAR-3 ovarian
[5] = test system: A498 renal
[6] = test system: T-47D breast
[7] = test system: COLO 205 colon
[8] = test system: TK-10 renal
[9] = test system: 786-0 renal
[10] = test system: MDA-MB-435
[11] = test system: SR leukemia
[12] = test system: SW-620 colon
[13] = test system: SNB-75 CNS
[14] = test system: BT-549 breast
[15] = test system: SK-MEL-28 melanoma
[16] = test system: U251 CNS
[17] = test system: HCT-15 colon
[18] = test system: HT29 colon
[19] = test system: SNB-19 CNS
[20] = test system: RXF 393 renal
[21] = test system: OVCAR-4 ovarian
[22] = test system: HCC-2998 colon
[23] = test system: OVCAR-5 ovarian
[24] = test system: MALME-3M melanoma
[25] = test system: RPMI-8226 leukemia
[26] = test system: ACHN renal
[27] = test system: IGROV1 ovarian
[28] = test system: UACC-257 melanoma
[29] = test system: NCI-H226 lung
[30] = test system: HCT-116 colon
[31] = test system: EKVX NSCLC
[32] = test system: SF-295 CNS
[33] = test system: CCRF-CEM leukemia
[34] = test system: OVCAR-8 ovarian
[35] = test system: MDA-MB-231 breast
[36] = test system: UO-31 renal
[37] = test system: NCI/ADR-RES ovarian
[38] = test system: HOP-92 NSCLC
[39] = test system: MCF7 breast
[40] = test system: UACC-62 melanoma
[41] = test system: HL-60(TB) leukemia
[42] = test system: SF-268 CNS
[43] = test system: SK-OV-3 ovarian
[44] = test system: CAKI-1 renal
[45] = test system: KM12 colon
[46] = test system: NCI-H23 lung
[47] = test system: PC-3 prostate
[48] = test system: LOX IMVI melanoma
[49] = test system: SK-MEL-5 melanoma
[50] = test system: SK-MEL-2 melanoma
[51] = test system: M14 melanoma
[52] = test system: K-562 leukemia
[53] = test system: MDA-N
[54] = test system: DU-145 prostate
[55] = test system: NCI-H460 lung
[56] = test system: NCI-H522 lung
[57] = test system: A549 NSCLC
[58] = test system: MOLT-4 leukemia
[59] = test system: SF-539 CNS

Measured: TGI

CC(CC(=O)O)(CC(=O)O)c1ccccc1
not listed: [58] | [59]
> 100 µM: all other assays above

O=C(CCc1ccc(O)c(O)c1)OCCc1ccccc1
40.6 µM: [10]
> 31.6 µM: [2]
> 57.5 µM: [52]
17.3 µM: [41]
> 65.6 µM: [21]
> 78.2 µM: [11]
76.3 µM: [33]
17.8 µM: [56]
54.5 µM: [59]
30.4 µM: [53]
> 62.2 µM: [12]
54.8 µM: [48]
> 83.4 µM: [58]
> 86.6 µM: [25]
not listed: [13]
> 100 µM: all other assays above
